Data set [1] addresses Cytochrome P450 3A4 (Homo sapiens, UniProt P08684).
Data set [2] concerns the target T1, Cytochrome P450 1A2 (Homo sapiens, UniProt P05177).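 Further: PubChem cytochrome P450 panel assay, CYP1A2 panel member.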
T1 sequence (P05177 whole entry): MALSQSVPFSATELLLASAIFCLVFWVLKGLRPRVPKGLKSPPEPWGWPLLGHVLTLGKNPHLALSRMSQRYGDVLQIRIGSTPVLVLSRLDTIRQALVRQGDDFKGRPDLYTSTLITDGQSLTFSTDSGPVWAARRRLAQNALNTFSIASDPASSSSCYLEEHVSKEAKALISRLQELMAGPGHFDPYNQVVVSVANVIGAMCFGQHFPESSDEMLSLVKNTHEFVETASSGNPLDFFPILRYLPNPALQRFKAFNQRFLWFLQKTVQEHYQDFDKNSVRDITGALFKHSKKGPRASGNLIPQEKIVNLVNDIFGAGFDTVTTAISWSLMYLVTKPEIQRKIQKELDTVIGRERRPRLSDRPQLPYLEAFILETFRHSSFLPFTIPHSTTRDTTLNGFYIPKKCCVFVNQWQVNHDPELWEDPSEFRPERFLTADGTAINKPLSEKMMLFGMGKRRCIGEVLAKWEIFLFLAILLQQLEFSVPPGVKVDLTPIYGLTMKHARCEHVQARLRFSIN

For data set [3], the target named is Cytochrome P450 2C9 (Homo sapiens, UniProt P11712).
In data set [4] the target is T2, Heat shock factor protein 1 (Mus musculus, UniProt P38532).
T2 sequence (P38532 whole entry): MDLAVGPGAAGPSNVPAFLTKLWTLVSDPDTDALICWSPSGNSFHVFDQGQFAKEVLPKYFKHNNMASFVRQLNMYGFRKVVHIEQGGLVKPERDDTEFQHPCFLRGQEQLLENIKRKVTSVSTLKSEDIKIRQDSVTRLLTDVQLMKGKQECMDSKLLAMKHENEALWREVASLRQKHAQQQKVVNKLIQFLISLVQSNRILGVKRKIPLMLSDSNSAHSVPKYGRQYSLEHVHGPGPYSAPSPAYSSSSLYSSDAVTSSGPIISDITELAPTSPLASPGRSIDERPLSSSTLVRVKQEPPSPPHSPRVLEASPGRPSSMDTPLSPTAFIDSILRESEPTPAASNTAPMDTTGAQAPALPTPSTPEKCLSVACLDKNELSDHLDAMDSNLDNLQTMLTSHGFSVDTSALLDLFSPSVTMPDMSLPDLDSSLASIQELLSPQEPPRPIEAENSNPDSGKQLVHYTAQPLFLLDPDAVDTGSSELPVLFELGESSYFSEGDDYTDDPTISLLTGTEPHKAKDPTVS
The data set is described as follows: enhancement of HSF1-driven luciferase signal – cell-based, NIH3T3, luminescence, dose retest, confirmation (AID 435004).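 Further: stress induced by proteasome inhibitor MG132 added 30 min after compound; luciferase reporter driven by HSF1 response element in NIH3T3 cells; actives raise luminescence as potentiators of the MG132 stress response.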 Format: functional.

Data set [5] concerns the target Cytochrome P450 2C19 (Homo sapiens, UniProt P33261). Put plainly: Cytochrome panel assay with activity outcomes. Panel member name: p450-cyp2c19 Compounds with AC50 equal or less than 10 uM are considered active. Format: functional.

Activity calls are given as the source filed them.

Cytochrome P450 2C9, sequence (P11712 whole entry): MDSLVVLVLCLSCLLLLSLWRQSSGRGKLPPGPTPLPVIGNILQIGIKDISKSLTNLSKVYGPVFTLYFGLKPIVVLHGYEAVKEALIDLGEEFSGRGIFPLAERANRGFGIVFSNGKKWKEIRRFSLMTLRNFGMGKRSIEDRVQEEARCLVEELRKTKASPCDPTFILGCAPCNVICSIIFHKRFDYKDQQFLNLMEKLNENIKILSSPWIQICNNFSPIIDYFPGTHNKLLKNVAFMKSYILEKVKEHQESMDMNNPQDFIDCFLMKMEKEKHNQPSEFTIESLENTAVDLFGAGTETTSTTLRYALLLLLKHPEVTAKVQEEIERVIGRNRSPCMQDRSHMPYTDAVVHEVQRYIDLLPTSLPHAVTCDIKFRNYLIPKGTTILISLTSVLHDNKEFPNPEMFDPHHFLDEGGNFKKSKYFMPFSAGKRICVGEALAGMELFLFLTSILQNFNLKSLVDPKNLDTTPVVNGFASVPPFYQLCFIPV
Cytochrome P450 2C19, sequence (P33261 whole entry): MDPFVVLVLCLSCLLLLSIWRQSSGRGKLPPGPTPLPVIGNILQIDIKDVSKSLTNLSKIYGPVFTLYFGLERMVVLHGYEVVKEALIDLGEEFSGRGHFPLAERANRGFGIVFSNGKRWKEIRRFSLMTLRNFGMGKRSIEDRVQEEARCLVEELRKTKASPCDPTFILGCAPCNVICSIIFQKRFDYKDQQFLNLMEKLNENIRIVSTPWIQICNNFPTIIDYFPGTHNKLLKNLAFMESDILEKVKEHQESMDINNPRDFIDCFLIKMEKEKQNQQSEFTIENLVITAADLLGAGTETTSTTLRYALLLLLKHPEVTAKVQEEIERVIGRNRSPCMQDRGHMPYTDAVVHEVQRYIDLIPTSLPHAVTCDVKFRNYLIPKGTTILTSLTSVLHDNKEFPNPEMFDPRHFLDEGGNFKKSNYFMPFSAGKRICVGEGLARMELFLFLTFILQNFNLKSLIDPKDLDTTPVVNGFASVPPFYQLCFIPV
Cytochrome P450 3A4, sequence (P08684 whole entry): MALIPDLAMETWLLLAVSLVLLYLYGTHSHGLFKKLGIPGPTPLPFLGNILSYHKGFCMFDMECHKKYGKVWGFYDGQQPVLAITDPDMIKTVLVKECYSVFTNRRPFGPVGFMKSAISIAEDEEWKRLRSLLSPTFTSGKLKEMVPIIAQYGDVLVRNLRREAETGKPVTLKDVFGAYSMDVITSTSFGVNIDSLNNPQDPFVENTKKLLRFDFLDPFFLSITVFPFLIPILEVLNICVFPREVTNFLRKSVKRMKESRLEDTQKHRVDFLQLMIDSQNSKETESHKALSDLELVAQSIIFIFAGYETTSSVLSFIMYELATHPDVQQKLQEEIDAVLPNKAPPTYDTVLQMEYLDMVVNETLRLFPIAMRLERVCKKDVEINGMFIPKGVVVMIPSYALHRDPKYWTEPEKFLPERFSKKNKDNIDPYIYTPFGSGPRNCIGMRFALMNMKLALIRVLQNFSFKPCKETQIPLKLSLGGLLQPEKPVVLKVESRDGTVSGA

Regarding `COCCn1c(=O)c(C)nc2cnc(OC)nc21`, the AC50 (commonly the concentration at which the activity in the assay is half-maximal) in data set [1] was 31.6 µM (inconclusive).

On to `CN(C(=S)NC(=O)c1ccccc1Br)C1CCCCC1`, for which the AC50 in data set [1] was 2.51 µM (inconclusive).

Turning to `CC(C)(S)[C@H](N)C(=O)O`, the AC50 in data set [2] was 6.31 µM (inconclusive).

Turning to `COc1cc(-c2ccc(/N=N\c3ccc4c(S(=O)(=O)O)cc(S(=O)(=O)O)c(N)c4c3O)c(OC)c2)ccc1/N=N\c1ccc2c(S(=O)(=O)O)cc(S(=O)(=O)O)c(N)c2c1O`, the AC50 in data set [1] and in data set [3] was 10 µM (inconclusive) in each case.

Regarding `COc1ccccc1C(=O)CSc1nnc(-c2ccco2)o1`, the EC50 (as a rule, the concentration that produces a half-maximal response) in data set [4] was 65 µM (active).

On to `COc1ccc(Oc2ncc3nc(C)c(=O)n(C[C@H]4CCCO4)c3n2)cc1`, for which the AC50 in data set [5] (read-out: AC50) is 25.1 µM (inconclusive); in data set [3], 39.8 µM (inconclusive).

In the case of `Cc1cccc(C2C3=C(CCCC3=O)N=C3c4ccccc4C(=O)C32)c1` (stereo not given), the EC50 in data set [4] is 26.1 µM (active).

For the molecule `NC(=NO)C1COc2ccccc2O1` (stereo not given), the AC50 in data set [5] (read-out: AC50) is 11.2 µM (inconclusive); in data set [3], 2.51 µM (inconclusive); in data set [2] it was 14.1 µM (inconclusive).

On to `Cc1ccc(-c2nc3ccccc3[nH]2)cc1NC(=O)c1ccc2c(c1)OCO2`, for which the EC50 in data set [4] was 70.2 µM (active).

As to `COc1cccc(-c2nc(C[S+]([O-])CC(=O)N3CCC4(CC3)OCCO4)c(C)o2)c1` (stereo not given), the AC50 was 14.1 µM (inconclusive) in data set [5] (read-out: AC50), 12.6 µM (inconclusive) in data set [1], 31.6 µM (inconclusive) in data set [3] and 25.1 µM (inconclusive) in data set [2].

Turning to `O=c1nc(SCc2cccc([N+](=O)[O-])c2)[nH]c2nc[nH]c12`, the AC50 entry in data set [5] is “inconclusive”; in data set [1], 3.16 µM (inconclusive).

As to `CN(C)C(=O)c1ccc(-c2cc(NCc3cccnc3)ncn2)cc1`, the concentration at half-maximal activity (AC50) in data set [2] is 20 µM (inconclusive).

As for `CC1=C(C#N)C(NC(=O)C2CCCCC2)(C(F)(F)F)C(=O)N1` (stereo not given), the AC50 in data set [5] (read-out: AC50) is 28.2 µM (inconclusive); in data set [3] it was 7.94 µM (inconclusive).

With `CCCNC(=O)NC(=O)CSc1cccc(C(F)(F)F)c1`, the EC50 in data set [4] was > 260 µM (inactive).

On to `CC(C)OC(=O)c1ccc(COc2ccc3ccc(=O)oc3c2)o1`, for which the EC50 in data set [4] was 66.6 µM (active).

With `Cc1cc(NC(=O)c2c([N+](=O)[O-])cnn2C)no1`, the results for the AC50 in data set [1] and in data set [3] were 25.1 µM (inconclusive) and 39.8 µM (inconclusive), respectively.

For the molecule `Nc1ncnc2c1CCC2`, the EC50 in data set [4] is > 260 µM (inactive).

For `O=c1[nH]c(=O)n([C@H]2C[C@H](O)[C@H](CO)O2)cc1/C=C\Br`, the AC50 in data set [1] is 20 µM (inconclusive); in data set [2], 31.6 µM (inconclusive).

`CCOc1ccc(-c2nn(-c3ccccc3)cc2/C=C(\C#N)S(=O)(=O)c2ccccc2)cc1C`: the values for the AC50 in data set [1] and in data set [3] were 11.2 µM (inconclusive) and 10 µM (inconclusive), respectively.

Take `COc1ccccc1N1CCN(c2nc(-c3ccccc3)cc(C(F)(F)F)n2)CC1`: in data set [2], the AC50 is 0.631 µM (inconclusive).

In the case of `COc1ccc(CCNC=C2C(=O)CC(C)(C)CC2=O)cc1`, the values for the AC50 in data set [5] (read-out: AC50) and in data set [3] were 28.2 µM (inconclusive) and 12.6 µM (inconclusive), respectively.

For `Clc1ccccc1-c1cc(NCCN2CCOCC2)ncn1`, the AC50 in data set [5] (read-out: AC50) was 25.1 µM (inconclusive); in data set [2] it was 31.6 µM (inconclusive).

Take `CCN1C(=O)/C(=C\c2c[nH]c3ccccc23)S/C1=N\c1ccc(C)cc1`: in data set [2], the AC50 was 6.31 µM (inconclusive).

As to `CCc1nc(O)c(C#N)c2c1CSC(C)(C)C2`, the EC50 in data set [4] was > 260 µM (inactive).

`ClCC1CS/C(=N\C23CC4CC(CC(C4)C2)C3)O1` (stereo not given): the EC50 in data set [4] was > 260 µM (inactive).

`O=C(Nc1cccc(C(F)(F)F)c1)c1n[nH]c(Cn2cncn2)n1`: the results for the AC50 in data set [5] (read-out: AC50) and in data set [1] were 28.2 µM (inconclusive) and 25.1 µM (inconclusive), respectively.

For the molecule `Cn1c(CN2CCN(c3ccc(Cl)cc3)CC2)nc2ccccc21`, the EC50 in data set [4] was > 260 µM (inactive).

For the molecule `C/C=C(/C)C(=O)Nc1cccc(C2=NOC3(C2)C[C@@H](C(N)=O)N(C(=O)CC)C3)c1` (stereo not given in full), in data set [4], the EC50 was > 260 µM (inactive).

`Clc1cncc(N2CCNCC2)n1` [MK-212]: the values for the AC50 in data set [5] (read-out: AC50) and in data set [1] were 6.31 µM (inconclusive) and 15.8 µM (inconclusive), respectively.

For the molecule `CCC(C)(C)NC(=O)c1ccc2c(c1)N(CC(=O)OC)C(=O)C(C)(C)O2`, the AC50 in data set [5] (read-out: AC50) is 20 µM (inconclusive); in data set [2], 0.158 µM (inconclusive).

With `Cc1ccc(C)c(NC2CCCCC2NS(=O)(=O)c2ccccc2)c1` (stereo not given), the EC50 in data set [4] was > 260 µM (inactive).

Regarding `O=C(c1ccco1)N1CCC[C@@]2(CCN(C(c3ccccc3)c3ccccc3)C2)C1`, in data set [3], the AC50 is 31.6 µM (inconclusive).

`COc1ccc(-n2c(=O)c3c4c(sc3n(CC(N)=O)c2=O)CCCCC4)cc1`: in data set [4], the EC50 was > 260 µM (inactive).

Turning to `COCC1C2CC[C@H]3C(OCc4ccc(OC)cc4)OC[C@]4(C)[C@H]3C2=C(CN4C(=O)OC(C)(C)C)[C@H](C)C1COC` (stereo not given in full), the AC50 in data set [3] and in data set [2] was 15.8 µM (inconclusive) in each case.

For the molecule `C[C@@H]1c2ccccc2Cn2cc3c(c21)C(=O)c1cccc(O[P@@](=O)(O)OCc2ccccc2)c1C3=O`, the AC50 in data set [2] was 3.16 µM (inconclusive).

Turning to `O=c1c(-c2ccc(F)cc2)nc2cnc(Oc3cccc(Cl)c3)nc2n1C[C@H]1CCCO1`, the AC50 in data set [5] (read-out: AC50) was 39.8 µM (inconclusive); in data set [1], 12.6 µM (inconclusive).

With `O=C(CCC(=O)Nc1ccccc1)NNC(=O)c1cccs1`, the AC50 in data set [5] (read-out: AC50) was 39.8 µM (inconclusive); in data set [3], 31.6 µM (inconclusive).

`COc1cc(OC)c(C(=O)CCCCN2CCC3(CC2)NC(=O)NC3=O)cc1NS(=O)(=O)c1ccc(C(F)(F)F)cc1` [RS-102,221]: the AC50 in data set [1] is 7.94 µM (inconclusive).

For `CC(C)(O)C#Cc1ccc(C(=O)NCc2cccs2)s1`, the AC50 in data set [5] (read-out: AC50) is 17.8 µM (inconclusive); in data set [1], 28.2 µM (inconclusive).

Turning to `COc1cccc(N/C(SCc2cccc([N+](=O)[O-])c2)=C(/C#N)C(=O)NCc2cccs2)c1`, the EC50 in data set [4] was > 260 µM (inactive).

As for `COc1ccc(-n2cnnc2SCC(=O)N(C)C2CCS(=O)(=O)C2)cc1` (stereo not given), the EC50 in data set [4] is > 260 µM (inactive).

Regarding `O=C(NC1CCCCC1)C(c1cccs1)N(C(=O)C(F)(F)F)c1ccccc1` (stereo not given), in data set [2], the AC50 was 2.51 µM (inconclusive).

With `CC(C)(C)OC(=O)N1CSC[C@H]1C(=O)NC[C@H](CC(=O)O)c1ccc(Cl)cc1`, the EC50 in data set [4] is > 260 µM (inactive).

Consider `COc1cccc(N2CCN(S(=O)(=O)c3ccc(-c4coc(C)n4)cc3)CC2)c1`, for which the EC50 in data set [4] is > 260 µM (inactive).

As for `CCN1CCN(S(=O)(=O)c2ccc(Cl)c(C(=O)Nc3nnc(CC(C)C)s3)c2)CC1`, the results for the AC50 in data set [5] (read-out: AC50) and in data set [3] were 39.8 µM (inconclusive) and 25.1 µM (inconclusive), respectively.

For the molecule `CN1C(C(=O)Nc2ccccn2)=C(O)c2sccc2S1(=O)=O` [TENOXICAM], in data set [3], the AC50 was 2.51 µM (inconclusive).

In the case of `Cc1ccc(Cn2cccc(NC(=O)NCc3ccccc3)c2=O)cc1`, the AC50 in data set [5] (read-out: AC50) was 5.01 µM (inconclusive); in data set [3], 14.1 µM (inconclusive).

Values taken from ChEMBL document CHEMBL1201862, “PubChem BioAssay data set” (2004).
